Reference: PubChem BioAssay (NCI)
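Method: 48-hour compound exposure of cells in 96-well plates, five concentrations, linear interpolation of endpoints. TGI: concentration producing complete growth inhibition.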

Key:
Assay in all cases: inhibition of tumour cell growth, NCI panel, 48 h
CCRF-CEM leukemia = test system: CCRF-CEM leukemia
KM12 colon = test system: KM12 colon
A498 renal = test system: A498 renal
CAKI-1 renal = test system: CAKI-1 renal
ACHN renal = test system: ACHN renal
SW-620 colon = test system: SW-620 colon
OVCAR-5 ovarian = test system: OVCAR-5 ovarian
UO-31 renal = test system: UO-31 renal
786-0 renal = test system: 786-0 renal
SK-OV-3 ovarian = test system: SK-OV-3 ovarian
HOP-92 NSCLC = test system: HOP-92 NSCLC
MDA-N = test system: MDA-N
UACC-62 melanoma = test system: UACC-62 melanoma
OVCAR-3 ovarian = test system: OVCAR-3 ovarian
NCI/ADR-RES ovarian = test system: NCI/ADR-RES ovarian
MALME-3M melanoma = test system: MALME-3M melanoma
K-562 leukemia = test system: K-562 leukemia
TK-10 renal = test system: TK-10 renal
IGROV1 ovarian = test system: IGROV1 ovarian
U251 CNS = test system: U251 CNS
PC-3 prostate = test system: PC-3 prostate
NCI-H23 lung = test system: NCI-H23 lung
HCT-15 colon = test system: HCT-15 colon
HS 578T breast = test system: HS 578T breast
SN12C renal = test system: SN12C renal
OVCAR-4 ovarian = test system: OVCAR-4 ovarian
HL-60(TB) leukemia = test system: HL-60(TB) leukemia
RPMI-8226 leukemia = test system: RPMI-8226 leukemia
UACC-257 melanoma = test system: UACC-257 melanoma
HCC-2998 colon = test system: HCC-2998 colon
MDA-MB-435 = test system: MDA-MB-435
RXF 393 renal = test system: RXF 393 renal
SF-539 CNS = test system: SF-539 CNS
MOLT-4 leukemia = test system: MOLT-4 leukemia
COLO 205 colon = test system: COLO 205 colon
SNB-75 CNS = test system: SNB-75 CNS
HT29 colon = test system: HT29 colon
HCT-116 colon = test system: HCT-116 colon
SK-MEL-28 melanoma = test system: SK-MEL-28 melanoma
M14 melanoma = test system: M14 melanoma
EKVX NSCLC = test system: EKVX NSCLC
NCI-H522 lung = test system: NCI-H522 lung
LOX IMVI melanoma = test system: LOX IMVI melanoma
MCF7 breast = test system: MCF7 breast
A549 NSCLC = test system: A549 NSCLC
BT-549 breast = test system: BT-549 breast
SK-MEL-2 melanoma = test system: SK-MEL-2 melanoma
SK-MEL-5 melanoma = test system: SK-MEL-5 melanoma
MDA-MB-231 breast = test system: MDA-MB-231 breast
SF-295 CNS = test system: SF-295 CNS
DU-145 prostate = test system: DU-145 prostate
HOP-62 NSCLC = test system: HOP-62 NSCLC
SNB-19 CNS = test system: SNB-19 CNS
SR leukemia = test system: SR leukemia
NCI-H226 lung = test system: NCI-H226 lung
OVCAR-8 ovarian = test system: OVCAR-8 ovarian
NCI-H460 lung = test system: NCI-H460 lung
T-47D breast = test system: T-47D breast
SF-268 CNS = test system: SF-268 CNS

## C[N+](C)(C)CCCCCc1c2nc(c(CCCCC[N+](C)(C)C)c3ccc([nH]3)c(CCCCC[N+](C)(C)C)c3ccc([nH]3)c(CCCCC[N+](C)(C)C)c3nc1C=C3)C=C2
CCRF-CEM leukemia
  TGI: > 100 µM
KM12 colon
  TGI: > 100 µM
A498 renal
  TGI: > 100 µM
CAKI-1 renal
  TGI: > 100 µM
ACHN renal
  TGI: > 100 µM
SW-620 colon
  TGI: > 100 µM
OVCAR-5 ovarian
  TGI: > 100 µM
UO-31 renal
  TGI: > 100 µM
786-0 renal
  TGI: > 100 µM
SK-OV-3 ovarian
  TGI: > 100 µM
HOP-92 NSCLC
  TGI: > 100 µM
MDA-N
  TGI: > 100 µM
UACC-62 melanoma
  TGI: > 100 µM
OVCAR-3 ovarian
  TGI: > 100 µM
NCI/ADR-RES ovarian
  TGI: > 100 µM
MALME-3M melanoma
  TGI: > 100 µM
K-562 leukemia
  TGI: > 100 µM
TK-10 renal
  TGI: > 100 µM
IGROV1 ovarian
  TGI: > 100 µM
U251 CNS
  TGI: > 100 µM
PC-3 prostate
  TGI: > 100 µM
NCI-H23 lung
  TGI: > 100 µM
HCT-15 colon
  TGI: > 100 µM
HS 578T breast
  TGI: > 100 µM
SN12C renal
  TGI: > 100 µM
OVCAR-4 ovarian
  TGI: > 100 µM
HL-60(TB) leukemia
  TGI: > 100 µM
RPMI-8226 leukemia
  TGI: > 100 µM
UACC-257 melanoma
  TGI: > 100 µM
HCC-2998 colon
  TGI: > 100 µM
MDA-MB-435
  TGI: > 100 µM
RXF 393 renal
  TGI: 7.32 µM
SF-539 CNS
  TGI: > 100 µM
MOLT-4 leukemia
  TGI: > 100 µM
COLO 205 colon
  TGI: > 100 µM
SNB-75 CNS
  TGI: > 100 µM
HT29 colon
  TGI: > 100 µM
HCT-116 colon
  TGI: > 100 µM
SK-MEL-28 melanoma
  TGI: > 100 µM
M14 melanoma
  TGI: > 100 µM
EKVX NSCLC
  TGI: > 100 µM
NCI-H522 lung
  TGI: > 100 µM
LOX IMVI melanoma
  TGI: > 100 µM
MCF7 breast
  TGI: > 100 µM
A549 NSCLC
  TGI: > 100 µM
BT-549 breast
  TGI: > 100 µM
SK-MEL-2 melanoma
  TGI: > 100 µM
SK-MEL-5 melanoma
  TGI: > 100 µM
MDA-MB-231 breast
  TGI: > 100 µM
SF-295 CNS
  TGI: > 100 µM
DU-145 prostate
  TGI: > 100 µM
HOP-62 NSCLC
  TGI: > 100 µM
SNB-19 CNS
  TGI: > 100 µM
SR leukemia
  TGI: > 100 µM
NCI-H226 lung
  TGI: > 100 µM
OVCAR-8 ovarian
  TGI: > 100 µM
NCI-H460 lung
  TGI: > 100 µM
T-47D breast
  TGI: > 100 µM
SF-268 CNS
  TGI: > 100 µM
